The values that follow come from ChEMBL document CHEMBL5390323, “Novel IRAK4 Inhibitors for Treating Asthma, COPD, Cancer, Autoinflammatory Diseases, and Autoimmune Diseases” (ACS Med Chem Lett, 2023).

This experiment addresses T1, Interleukin-1 receptor-associated kinase 4 (Homo sapiens, UniProt Q9NWZ3).
T1 sequence (Q9NWZ3 whole entry): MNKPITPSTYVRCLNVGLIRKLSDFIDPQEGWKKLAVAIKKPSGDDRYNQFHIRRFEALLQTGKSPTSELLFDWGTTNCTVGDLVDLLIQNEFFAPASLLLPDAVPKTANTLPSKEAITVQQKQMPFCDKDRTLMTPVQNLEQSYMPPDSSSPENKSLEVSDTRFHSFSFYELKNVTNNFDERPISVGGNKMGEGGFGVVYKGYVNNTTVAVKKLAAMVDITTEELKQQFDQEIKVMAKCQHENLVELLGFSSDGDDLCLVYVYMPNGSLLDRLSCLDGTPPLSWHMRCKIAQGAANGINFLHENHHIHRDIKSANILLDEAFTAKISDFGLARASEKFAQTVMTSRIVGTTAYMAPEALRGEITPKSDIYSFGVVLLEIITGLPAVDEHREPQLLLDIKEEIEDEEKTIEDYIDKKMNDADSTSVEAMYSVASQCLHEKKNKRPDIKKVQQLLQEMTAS
The experiment can be described thus: Inhibition of recombinant human full length his-tagged IRAK4 expressed in insect cells using KKARFSRFAGSSPSQSSMVAR as peptide substrate preincubated for 15 mins followed by substrate addition and measured after 2 hrs in presence of ATP by LC-MS/MS analysis.

In the case of `COc1cc2nn([C@H]3CC[C@H](n4ccnc4C(C)O)CC3)cc2cc1C(=O)Nc1cccn(C)c1=O` (stereo partly specified), the IC50 stood at 500 pM.

For orientation: IC50 means the point on the concentration scale where inhibition reaches its midpoint.
